Data on 1 compound can be found in ChEMBL document CHEMBL4028852, “Design of a Chemical Probe for the Bromodomain and Plant Homeodomain Finger-Containing (BRPF) Family of Proteins” (J Med Chem, 2017).

For assay [1], the system named is NCI-H1703. The experiment in a line: Inhibition of cell proliferation of human NCI-H1703 cells after 72 hrs by MTS assay. Type of assay: functional. Particulars: NCI-H1703, 72 h.
Assay [2] in a line: Inhibition of cell proliferation of human RERF-LC-Sq1 cells after 72 hrs by MTS assay. The class given is functional. The following applies: RERF-LC-Sq1, 72 h. In general terms: Tetrazolium dyes change colour on reduction, which living cells bring about.
Assay [3] deals with T1, Peregrin (Homo sapiens) (UniProt P55201).
T1 sequence (whole entry): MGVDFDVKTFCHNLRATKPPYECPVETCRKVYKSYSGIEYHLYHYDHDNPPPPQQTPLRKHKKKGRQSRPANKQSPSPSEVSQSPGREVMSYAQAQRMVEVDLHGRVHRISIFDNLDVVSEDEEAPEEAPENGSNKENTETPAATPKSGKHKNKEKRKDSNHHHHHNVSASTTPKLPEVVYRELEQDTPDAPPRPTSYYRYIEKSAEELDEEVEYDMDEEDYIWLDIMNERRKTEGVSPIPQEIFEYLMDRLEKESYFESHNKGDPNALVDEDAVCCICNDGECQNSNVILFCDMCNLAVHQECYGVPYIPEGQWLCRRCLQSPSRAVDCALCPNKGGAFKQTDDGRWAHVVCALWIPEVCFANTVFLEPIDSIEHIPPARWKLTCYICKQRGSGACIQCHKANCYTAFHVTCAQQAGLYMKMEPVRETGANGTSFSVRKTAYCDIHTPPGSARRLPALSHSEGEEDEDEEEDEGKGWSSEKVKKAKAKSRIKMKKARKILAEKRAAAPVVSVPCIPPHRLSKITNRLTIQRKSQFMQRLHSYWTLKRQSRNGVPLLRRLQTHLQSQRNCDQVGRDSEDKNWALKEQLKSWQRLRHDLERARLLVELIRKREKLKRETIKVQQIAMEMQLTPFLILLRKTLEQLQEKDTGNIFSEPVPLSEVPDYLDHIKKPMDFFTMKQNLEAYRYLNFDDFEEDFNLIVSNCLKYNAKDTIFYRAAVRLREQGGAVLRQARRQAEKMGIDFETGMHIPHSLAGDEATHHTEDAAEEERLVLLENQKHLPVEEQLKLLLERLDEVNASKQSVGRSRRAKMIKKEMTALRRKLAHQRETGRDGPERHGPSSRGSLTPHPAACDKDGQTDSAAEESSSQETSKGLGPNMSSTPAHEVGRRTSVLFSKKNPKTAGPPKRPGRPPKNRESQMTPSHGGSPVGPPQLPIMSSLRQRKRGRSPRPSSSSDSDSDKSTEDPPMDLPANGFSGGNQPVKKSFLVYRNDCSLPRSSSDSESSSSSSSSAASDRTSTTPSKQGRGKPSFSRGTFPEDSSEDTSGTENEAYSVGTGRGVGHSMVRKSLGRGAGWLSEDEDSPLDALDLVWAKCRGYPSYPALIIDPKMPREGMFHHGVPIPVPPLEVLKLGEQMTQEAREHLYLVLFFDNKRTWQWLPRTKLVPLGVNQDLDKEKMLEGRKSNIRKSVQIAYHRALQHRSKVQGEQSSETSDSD
Description: Binding affinity to BRPF1 (unknown origin) assessed as change in melting temperature at 10 uM by differential scanning fluorimetry based thermal shift assay

In assay [4] the test system is DMS-114. The experiment in a line: Inhibition of cell proliferation of human DMS114 cells after 72 hrs by MTS assay. Type of assay: functional. The following applies: DMS-114, 72 h.
Assay [5] in a line: Inhibition of cell proliferation of human HRA19 cells after 72 hrs by MTS assay. The following applies: HRA19, 72 h. Type of assay: functional.

Usually GI50 stands for the concentration giving 50% growth inhibition. Lower therefore signals more potent growth inhibition. One may read the ΔTm as the change in melting temperature against a reference sample.

Where only a bound is given, the exact number is not on record here.

With `Cc1cc2cc(NS(=O)(=O)c3ccc(C#N)cc3)ccc2n(C)c1=O`, the GI50 in assay [1] was over 30 µM; in assay [2] it was 17.1 µM; in assay [4] it was 16.6 µM; in assay [5], 15.6 µM. In addition, the shift in melting temperature (ΔTm) in assay [3] was 9.7 °C.
